Biological target: AMPK
Assay: AMPK activation, enzyme-linked immunosorbent assay
Type: biochemical
[1] = compounds of Table 5 (Table 10)

| EC50 (compounds of Table 1 (Table 6)) [µM] | Structure (SMILES) | further results |
| --- | --- | --- |
| – | O=C(NC1CCN(Cc2ccc(C(F)(F)F)cc2)CC1)c1ccc2[nH]c3c(c2c1)CN(c1ccc(F)cc1)CC3 [2-37, 2-(4-fluorophenyl)-N-(1-(4-(trifluoromethyl)benzyl)piperidin-4-yl)-2,3,4,5-tetrahydro-1H-pyrido[4,3-b]indole-8-carboxamide] | EC50 (compounds of Table 2 (Table 7)): 5 to 10 µM |
| 0.1 to 0.5 | CC(C)(C)OC(=O)N1CCC(NC(=O)c2cc3ccc(OC4CCN(c5ccc(OC(F)(F)F)cc5)CC4)cc3o2)CC1 [1-81, tert-butyl 4-(6-(1-(4-(trifluoromethoxy)phenyl)piperidin-4-yloxy)benzofuran-2-carboxamido)piperidine-1-carboxylate] | – |
| < 0.1 | O=C(NC1CCN(Cc2cccnc2)CC1)c1sc2cc(OC3CCN(c4ccc(C(F)(F)F)cc4)CC3)ccc2c1Cl [1-152, 3-chloro-N-(1-(pyridin-3-ylmethyl)piperidin-4-yl)-6-(1-(4-(trifluoromethyl)phenyl)piperidin-4-yloxy)benzo[b]thiophene-2-carboxamide] | – |
| – | N#Cc1ccc(CN2CCC(NC(=O)c3ccc(OC4CCN(c5ccc(C(F)(F)F)cc5)CC4)c(F)c3)CC2)cc1 [5-43, N-(1-(4-cyanobenzyl)piperidin-4-yl)-3-fluoro-4-(1-(4-(trifluoromethyl)phenyl)piperidin-4-yloxy)benzamide] | EC50 [1]: < 1 µM |
| 0.1 to 0.5 | O=C(N[C@H]1CCN(Cc2ccc(F)cc2)C1)c1ccc(OC2CCN(c3ccc(C(F)(F)F)cc3)CC2)cn1 [1-32, (S)-N-(1-(4-fluorobenzyl)pyrrolidin-3-yl)-5-(1-(4-(trifluoromethyl)phenyl)piperidin-4-yloxy)picolinamide] | – |
| – | O=C(NC1CCN(Cc2ccccc2)CC1)c1ccc(OC2CCNCC2)c(Cl)c1 [5-93, N-(1-benzylpiperidin-4-yl)-3-chloro-4-(piperidin-4-yloxy)benzamide] | EC50 [1]: > 100 µM |
| 1 to 5 | CC(C)(C)OC(=O)N1CCC(NS(=O)(=O)c2ccc(OC3CCN(c4ccc(C(F)(F)F)cc4)CC3)nc2)CC1 [1-54, tert-butyl 4-(6-(1-(4-(trifluoromethyl)phenyl)piperidin-4-yloxy)pyridine-3-sulfonamido)piperidine-1-carboxylate] | – |
| < 0.1 | O=C(NC1CCN(Cc2ccc(F)cc2)CC1)c1cc2ccc(OC3CCN(c4ccc(OC(F)(F)F)cc4)CC3)cc2o1 [1-94, N-(1-(4-fluorobenzyl)piperidin-4-yl)-6-(1-(4-(trifluoromethoxy)phenyl)piperidin-4-yloxy)benzofuran-2-carboxamide] | – |
| 0.1 to 0.5 | N#Cc1ccc(CN2CCC(Oc3ccc(S(=O)(=O)NC4CCN(Cc5ccncc5)CC4)cn3)CC2)cc1 [1-53, 6-(1-(4-cyanobenzyl)piperidin-4-yloxy)-N-(1-(pyridin-4-ylmethyl)piperidin-4-yl)pyridine-3-sulfonamide] | – |
| – | N#Cc1ccc(CN2CCC(Oc3cccc(C(=O)NC4CCN(Cc5ccccc5)CC4)c3)CC2)cc1 [5-50, N-(1-benzylpiperidin-4-yl)-3-(1-(4-cyanobenzyl)piperidin-4-yloxy)benzamide] | EC50 [1]: 1 to 10 µM |
| – | O=C(NC1CCN(Cc2ccncc2)CC1)c1cccc(OC2CCN(c3ccc(C(F)(F)F)cc3)CC2)c1 [5-87, N-(1-(pyridin-4-ylmethyl)piperidin-4-yl)-3-(1-(4-(trifluoromethyl)phenyl)piperidin-4-yloxy)benzamide] | EC50 [1]: < 1 µM |
| – | N#Cc1ccc(CN2CC[C@H](NC(=O)c3ccc(C(=O)N4CCN(c5ccc(Cl)cc5)CC4)cn3)C2)cc1 [4-6, (S)-5-(4-(4-chlorophenyl)piperazine-1-carbonyl)-N-(1-(4-cyanobenzyl)pyrrolidin-3-yl)picolinamide] | EC50 (compounds of Table 4 (Table 9)): 0.5 to 1 µM |
| < 0.1 | CN(C(=O)c1cc2cc(OC3CCN(c4ccc(C(F)(F)F)cc4)CC3)ccc2o1)C1CCN(Cc2cccnc2)CC1 [1-109, N-methyl-N-(1-(pyridin-3-ylmethyl)piperidin-4-yl)-5-(1-(4-(trifluoromethyl)phenyl)piperidin-4-yloxy)benzofuran-2-carboxamide] | – |
| – | N#Cc1ccc(CN2CCc3ccc(C(=O)NC4CCN(Cc5ccc(C(F)(F)F)cc5)CC4)cc3C2)cc1 [3-39, 2-(4-cyanobenzyl)-N-(1-(4-(trifluoromethyl)benzyl)piperidin-4-yl)-1,2,3,4-tetrahydroisoquinoline-7-carboxamide] | EC50 (compounds of Table 3 (Table 8)): 1 to 10 µM |
| 5 to 10 | O=C(N[C@@H]1CCNC1)c1ccc(OC2CCN(c3ccc(C(F)(F)F)cc3)CC2)cn1 [1-24, (R)-N-(pyrrolidin-3-yl)-5-(1-(4-(trifluoromethyl)phenyl)piperidin-4-yloxy)picolinamide] | – |
| – | COc1cc(C(=O)NCCCNC(=O)OC(C)(C)C)ccc1OC1CCN(Cc2ccc(C(F)(F)F)cc2)CC1 [5-94, tert-butyl 3-(3-methoxy-4-(1-(4-(trifluoromethyl)benzyl)piperidin-4-yloxy)benzamido)propylcarbamate] | EC50 [1]: < 1 µM |
| < 0.1 | Cc1c(C(=O)NC2CCN(Cc3ccc(C#N)cc3)CC2)oc2cc(OC3CCN(c4ccc(C(F)(F)F)cc4)CC3)ccc12 [1-64, N-(1-(4-cyanobenzyl)piperidin-4-yl)-3-methyl-6-(1-(4-(trifluoromethyl)phenyl)piperidin-4-yloxy)benzofuran-2-carboxamide] | – |
| – | N#Cc1ccc(CN2CCC(NC(=O)c3cn4ccc(OC5CCN(c6ccc(C(F)(F)F)cc6)CC5)cc4n3)CC2)cc1 [3-18, N-(1-(4-cyanobenzyl)piperidin-4-yl)-7-(1-(4-(trifluoromethyl)phenyl)piperidin-4-yloxy)imidazo[1,2-a]pyridine-2-carboxamide] | EC50 (compounds of Table 3 (Table 8)): < 0.1 µM |

— US9511058B2, “Methods for using carboxamide, sulfonamide and amine compounds” (Rigel Pharmaceuticals, Inc., priority 2010, dated 2016)
